Test results from ChEMBL document CHEMBL1201862, “PubChem BioAssay data set” (2004).
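In this assay, cells in 96-well plates receive the compound at five concentrations for 48 hours. Endpoints are linearly interpolated between the surrounding concentrations. Abbreviation: GI50, concentration required for 50% inhibition of growth.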 Activity calls are given as the source filed them. Rule as the data show it: active = GI50 up to about 1.1 µM and inactive = higher.

Assays:
Experiment in all cases: growth of human tumour cells (NCI), 48 h
[1] = tested on: SK-MEL-28
[2] = tested on: KM12
[3] = tested on: CCRF-CEM
[4] = tested on: LXFL 529
[5] = tested on: SNB-75
[6] = tested on: IGROV-1
[7] = tested on: A498
[8] = tested on: UACC-62
[9] = tested on: HOP-92
[10] = tested on: A549
[11] = tested on: TK-10
[12] = tested on: OVCAR-4
[13] = tested on: UO-31
[14] = tested on: SK-MEL-5
[15] = tested on: OVCAR-3
[16] = tested on: PC-3
[17] = tested on: MDA-MB-435
[18] = tested on: MDA-N
[19] = tested on: NCI/ADR-RES
[20] = tested on: MCF7

Compound	GI50 [1]	GI50 [2]	GI50 [3]	GI50 [4]	GI50 [5]	GI50 [6]	GI50 [7]	GI50 [8]	GI50 [9]	GI50 [10]	GI50 [11]	GI50 [12]	GI50 [13]	GI50 [14]	GI50 [15]	GI50 [16]	GI50 [17]	GI50 [18]	GI50 [19]	GI50 [20]
COC(=O)[C@@]12C3=NO[C@]1(C(=O)OC)C(O[Si](C)(C)C(C)(C)C)[C@@H](OC(C)=O)[C@@H](OC(C)=O)[C@@H]2[C@@H](OCc1ccccc1)CC3 (stereo not given in full)	> 23.8 µM (inactive)	> 100 µM (inactive)	5.45 µM (inactive)	4.45 µM (inactive)	8.63 µM (inactive)	> 29 µM (inactive)	> 85.3 µM (inactive)	> 43.6 µM (inactive)	2.22 µM (inactive)	28.3 µM (inactive)	> 100 µM (inactive)	4.82 µM (inactive)	> 19.9 µM (inactive)	4.16 µM (inactive)	13.5 µM (inactive)					
[N-]=[N+]=Nc1ccc(S(=O)(=O)Oc2cc(OS(=O)(=O)c3ccc(N=[N+]=[N-])cc3)cc(OS(=O)(=O)c3ccc(N=[N+]=[N-])cc3)c2)cc1	> 100 µM (inactive)	> 100 µM (inactive)	> 100 µM (inactive)	> 100 µM (inactive)	> 10 µM (inactive)	> 100 µM (inactive)	> 100 µM (inactive)	> 100 µM (inactive)	> 100 µM (inactive)	> 100 µM (inactive)	> 100 µM (inactive)	> 10 µM (inactive)	> 100 µM (inactive)	> 100 µM (inactive)	> 100 µM (inactive)					
COc1cccc(/C(Cl)=C(\C=O)c2cccc(OC)c2)c1	11.7 µM (inactive)	12.8 µM (inactive)	3.97 µM (inactive)	5.65 µM (inactive)	8.24 µM (inactive)	21 µM (inactive)	19.3 µM (inactive)	4.43 µM (inactive)	12.4 µM (inactive)	12.1 µM (inactive)	20.4 µM (inactive)	13.8 µM (inactive)	13 µM (inactive)	11.5 µM (inactive)	15.4 µM (inactive)					
O=c1/c(=C/c2ccccc2[N+](=O)[O-])sc2nnc(-c3ccco3)n12	21.8 µM (inactive)	17.6 µM (inactive)	23.1 µM (inactive)	19 µM (inactive)	25.8 µM (inactive)	25.1 µM (inactive)	> 100 µM (inactive)	25.8 µM (inactive)	> 100 µM (inactive)	19.8 µM (inactive)	> 100 µM (inactive)	22.4 µM (inactive)	30.5 µM (inactive)	19.1 µM (inactive)	17.7 µM (inactive)					
COc1c(C)c(O)c2c(c1C)OC(c1ccccc1)CC2=O (stereo not given)	50.4 µM (inactive)	52.6 µM (inactive)	31.4 µM (inactive)	35.2 µM (inactive)	65 µM (inactive)	98.9 µM (inactive)	19.9 µM (inactive)	53 µM (inactive)	29.6 µM (inactive)	52.5 µM (inactive)	42.9 µM (inactive)	67.9 µM (inactive)	61.7 µM (inactive)	> 10 µM (inactive)	> 100 µM (inactive)					
FC(F)(F)c1nc(-c2ccccc2)oc1Sc1nnc(Sc2oc(-c3ccccc3)nc2C(F)(F)F)s1	> 55.3 µM (inactive)	> 100 µM (inactive)	8.97 µM (inactive)	27.8 µM (inactive)	37.8 µM (inactive)	24.2 µM (inactive)	98.6 µM (inactive)	35.2 µM (inactive)	29.4 µM (inactive)	> 100 µM (inactive)	> 55.8 µM (inactive)	14.7 µM (inactive)	> 100 µM (inactive)	14.4 µM (inactive)	> 43.4 µM (inactive)					
COc1ccc(N(C)CN(C)c2nc(N(C)C)nc(N(C)C)n2)cc1	> 100 µM (inactive)	> 100 µM (inactive)	> 100 µM (inactive)	> 100 µM (inactive)	> 100 µM (inactive)	> 100 µM (inactive)	> 100 µM (inactive)	> 100 µM (inactive)	> 100 µM (inactive)	> 100 µM (inactive)	> 100 µM (inactive)	> 100 µM (inactive)	> 100 µM (inactive)	> 100 µM (inactive)	> 100 µM (inactive)					
COc1c(O)c2ccccc2c2cc(O)ccc12	4.91 µM (inactive)	11.6 µM (inactive)	6.24 µM (inactive)	2.59 µM (inactive)	8.17 µM (inactive)	9.57 µM (inactive)	8.45 µM (inactive)	2.67 µM (inactive)	10.6 µM (inactive)	8.65 µM (inactive)	25.4 µM (inactive)	6.56 µM (inactive)	4.04 µM (inactive)	2.17 µM (inactive)	8.81 µM (inactive)	16.6 µM (inactive)	1 µM (active)	1.08 µM (active)	6.98 µM (inactive)	2.39 µM (inactive)
COc1cc(/C=C/c2ccc(Br)cc2)cc(OC)c1OC	6.21 µM (inactive)	8.11 µM (inactive)	11.8 µM (inactive)	16.1 µM (inactive)	8.38 µM (inactive)	23.6 µM (inactive)	6.71 µM (inactive)	8.02 µM (inactive)	12.1 µM (inactive)	11.7 µM (inactive)	21.6 µM (inactive)	21.3 µM (inactive)	9.77 µM (inactive)	5.9 µM (inactive)	7.8 µM (inactive)					
